In a melting point compilation (Tetko et al.; mined from patent text by program, amines drawn as free bases though some values may be those of a salt):
Residues, ends and D or L forms follow the SMILES beside them. *: point of attachment. Cbz = O=C(OCc1ccccc1)*

| SMILES | melting point [°C] |
| --- | --- |
| CC1(c2ccc(-c3ccc(Cl)cc3)cc2)CC(=O)NN1 (stereo not given) | 214 to 215 |
| CCCc1cc2nc(=O)[nH]n2c(C)n1 | 173 |
| Cc1c(Cl)cccc1NCc1ccccc1Cl | 63 to 66 |
| CC(=O)NCCOC(c1ccc(F)cc1)c1ccc(F)cc1 | 112 to 114 |
| COc1ccc(-c2coc3ccc(-c4nnc(SCc5cccc(C#N)c5)o4)cc23)cc1 | 145 to 146 |
| CS(=O)(=O)Nc1ccc(C(CC2CCCC2)C(=O)Nc2nccs2)cc1 (stereo not given) | 85 to 90 |
| OC(CCN1CCN(c2ccc(F)cc2)CC1)c1cnn2c1CCCC2 (stereo not given) | 130 to 131 |
| CNC(=O)CN1CCc2cc(Nc3ncc(Cl)c(Nc4ccccc4C(=O)NC)n3)c(OC)cc2CC1 | 200 to 216 |
| COC(=O)c1nc(-c2ccc(C)c(OC)c2F)cc(N)c1Cl | 95 to 96 |
| Nc1nc(OS(=O)(=O)Cl)nn1C(=O)Oc1ccccc1 | 164 |
| COc1c2c(c(OC)c(OC)c1OC)CCC(CCI)CC2 | 75 to 82 |
| COc1ccc(NC(=O)N(Cc2ccccn2)C2CCCCCC2)c(NC(=O)c2cc(C(C)(C)C)c(O)c(C(C)(C)C)c2)c1 | 165 to 166 |
| FC(F)(F)c1ccc2nc3c(nc2c1)-c1cccc2cccc-3c12 | 185 to 186 |
| CCN1CCN(Cc2nc(-c3ccc4c(c3)Nc3ccccc3S4)cs2)CC1 | 182 to 184 |
| COc1ccc(N2CCN(C(=O)CC3C=Cc4ccccc43)CC2)cc1 (stereo not given) | 123 to 125 |
| O=[N+]([O-])c1ccc(Sc2cccc3cnccc23)nc1 | 115 to 117 |
| CCCc1nn(-c2ccc(C(F)(F)F)cn2)cc1CCCCOc1nn(-c2ccccc2)cc1CC(=O)O | 114 to 115 |
| COC(=O)[C@H](Cc1c[nH]cn1)NC(=O)[C@H](Cc1ccccc1)NC(=O)[C@H](Cc1ccccc1)NC(=O)OCc1ccccc1 (Cbz-Phe-Phe-His-OMe) | 204 to 206 |
| N#Cc1ccc(OCC(O)CN2C3CCC2CNC3)cc1 (stereo not given) | 125 to 128 |
| COc1ccc(Cn2c(=O)n([C@H]3CC[C@H](O)CC3)c3ccc(C(F)(F)F)cc32)cc1OC | 108 to 110 |
| CCCCC(CC)(C(=O)O)C(=O)O | 161 to 170 |
| O=C1CCCn2c(=O)n(Cc3ccccc3)c3cccc1c32 | 135 |

| SMILES | melting point [°C] |
| --- | --- |
| CS(=O)(=O)C1CCCCC1Br (stereo not given) | 45 to 48 |
| Cn1c(=O)c2c(ncn2CC(O)CN2CCN(CCCS(=O)(=O)c3ccccc3)CC2)n(C)c1=O (stereo not given) | 168 |
| Brc1ccc(OC2CCN(c3nc4cccc5c4n3CCC5)CC2c2ccccc2)cc1 (stereo not given) | 188 to 189 |
| CC1(C)C2CC3CCC(=O)OC3C1C2 (stereo not given) | 57 to 60 |
| CCC(C)c1ccc(N(Cc2ccc(C(C)(C)C)cc2)C(=N)N(C)c2ccccc2)cc1 (stereo not given) | 80 to 82 |
| O=C(NCCN1CCN(c2cc(C(F)(F)F)ccn2)CC1)c1ccc(F)cc1 | 159 |
| COc1cc2ncnc(N3CCN(C(=S)Nc4ccncc4)CC3)c2cc1OC | 218 to 220 |
| COc1ccc(NC(C)=O)cc1NC(=O)NC(=O)c1cc(F)c(F)cc1Cl | 225 to 228 |
| Nc1ncnc2c1ncn2C(c1ccccc1)(c1ccccc1)c1ccccc1 | 260 to 262 |
| CN1CCN(C2=Nc3cc(Cl)ccc3Cn3nnnc32)CC1 | 228 to 230 |
| O=S1(=O)N=CN(C2CC2)c2cc(F)cc(Cl)c21 | 252 to 255 |
| Nc1ncncc1Oc1ccccc1 | 118 to 120 |
| O=C(Nc1ccccc1)Nc1onc2c1CCC2 | 202 |
| CC1(C)Oc2ccc([N+](=O)[O-])cc2[C@@H](O)[C@@H]1Br (relative stereo) | 114 to 116 |
| CC(=O)n1nc(-c2c(C)cc(C)c(N)c2C)n2nc(C(C)(C)C)cc12 | 206 to 207 |
| O=[N+]([O-])c1cc(Cl)c(Cl)cc1-n1cccc1 | 69.5 to 70.5 |
| NC(=O)c1cc2cc(OCC(O)CCl)ccc2o1 (stereo not given) | 136 to 138 |
| CC1CCCN1CCCN1CCN(C2CCN(Cc3ccccc3)CC2)C1=C(C#N)C#N (stereo not given) | 130 to 131 |
| CCS(=O)(=O)Nc1cc(-n2nc3n(c2=O)CCS3)c(F)cc1C#N | 209 to 211 |
| Cn1c(CCc2cc(C(F)(F)F)cc(C(F)(F)F)c2)c(Cc2c[nH]c3ccccc23)oc1=O | 109 to 110 |
| FCc1cccc(C#CCCc2cnc3cc(F)c(F)cc3n2)n1 | 135 to 138 |
| CCCCC[C@H]1CC[C@H](CSc2cc(O)c3c(c2N)C(=O)c2ccccc2C3=O)CC1 | 129 to 130 |

| SMILES | melting point [°C] |
| --- | --- |
| COc1cc2ncc(C#N)c(Nc3ccc(O)cc3O)c2cc1OC | > 250 |
| CN(C(=O)C1=NN(c2ccc(Cl)cc2)C(c2ccc(Cl)cc2)C1)c1ccc(C(F)(F)F)cc1 (stereo not given) | 181 to 183 |
| CCCCCCC(=O)N[C@@H]1N=C(c2ccccc2)c2ccccc2N(C)C1=O | 49 to 54 |
| O=C1NC(=O)C(S(=O)(=O)c2ccc(F)cc2)S1 (stereo not given) | 190 to 196 |
| CN1CCN(c2c(F)c(NCc3ccccc3)c3nc(CC(N)=O)n(C4CC4)c3c2F)CC1 | 157 to 159 |
| COc1ccc(F)cc1C(C)(C)CC(O)(Cc1cc(C)cc(C)n1)C(F)(F)F (stereo not given) | 95 to 98 |
| COC(=O)c1ccc2[nH]c(S)nc2n1 | 233 to 234 |
| O=C(Nc1ccccc1Cl)C1CN(C(=O)Nc2ccc(C(F)(F)F)cc2)N=C1c1ccc(Cl)cc1 (stereo not given) | > 200 |
| O=S1(=O)N=CN(C2CC2)c2cc(Br)cc(C(F)(F)F)c21 | 253 to 254 |
| Oc1cccc2c3ccccc3n(C3CCCCO3)c12 (stereo not given) | 137 to 140 |
| C#Cc1cccc(-c2nccc3nc(N)nn23)c1 | 170 to 172 |
| CN1CCN(C(=O)Nc2ccccc2C=Cc2cc(C(C)(C)C)c(O)c(C(C)(C)C)c2)CC1 | 192 to 194 |
| CC(=O)ON=C(N)c1ccc(C(=O)N2CCN(C(=O)[C@@H]3CCCN3S(=O)(=O)c3ccc(Cl)c(COc4cccn5c(C)c(C)nc45)c3Cl)CC2)cc1 | 142 to 145 |
| CCc1cc(Oc2ccc(C(F)(F)F)cc2[N+](=O)[O-])nn1C(=O)NC | 89 to 91 |
| c1cc2ccc3occc3c2[nH]1 | 141 to 144 |
| COC(=O)c1c[nH]c(CCC2CNc3nc(NC(=O)C(C)(C)C)nc(O)c3C2)c1 (stereo not given) | > 260 |
| Cc1nc2c(c3c1[nH]c1cccc(F)c13)C(=O)CC(C(C)C)C2 (stereo not given) | 213 to 215 |
| O=C(Cl)CN1C(=O)C(Cl)=C(Cl)C1=O | 102 to 103 |
| Fc1ccc2c(c1)Cc1cccnc1-2 | 80 to 84 |
| Nc1nc(Cl)c2ncn([C@@H]3C[C@H](O)[C@@](O)(CO)C3)c2n1 | 217 to 219 |

The remaining lines, values ahead:

| melting point [°C] | SMILES |
| --- | --- |
| 132 to 133 | CCOC(=O)N1CCN(c2nc(NC(C)=O)ccc2F)CC1 |
| 54 to 56 | C[C@H](CSC(=O)c1ccccc1)C(=O)N(CC(=O)OC(C)(C)C)C1CCCC1 |
| 107 | CCOC(=O)C(=CC=C(SC)C(=O)c1ccc(Br)cc1)N(C)C |
| 113 to 114 | COc1ccc2c(c1)C(=O)c1c-2c(NCCCN(C)C)nc2ccccc12 |
| 124 to 127 | CCCn1ncc2c(=O)[nH]c(-c3cc(C(=O)N4CCN(C)CC4)ccc3OCC)nc21 |
| 129 to 130 | Cc1ccc(S(=O)(=O)NC2CCCC2NC(=O)OC(C)(C)C)cc1 (stereo not given) |
| 139 to 140 | CC(=O)N[C@@H](Cc1ccc(Oc2sc(C(N)=O)c3c2-c2c(cnn2C)CC3)cc1)C(=O)N1CCOCC1 |
| 113 to 115 | CCCC(=O)c1cnc2c(C(=O)OC)cccc2c1Nc1ccccc1C |
| 174 to 175 | NS(=O)(=O)c1ccc(NC(=O)CCl)c(Br)c1 |
| 141 to 142 | CCOC(=O)C1CCc2c([nH]c3ccc(Cl)cc23)C1 (stereo not given) |
| 224 to 228 | Cc1c(Cl)cccc1N=C1NCCN1C(=O)c1ccc(C#N)cc1 |
| 145 to 147 | CC(=O)Nc1ccc(/C(=C/N2CCOCC2)C(=S)N2CCOCC2)cc1 |
| 194 | O=C(Nc1ccc2ccc(Oc3ccccc3)nc2n1)c1cccc(Br)c1 |
| 97 to 99 | NS(=O)(=O)CC(=O)c1ccccc1 |
| 208 | CCCN(CC)C(=O)c1ccc(CN2C(=O)C(c3ccccc3Cl)(N(C)C)c3cc(Cl)ccc32)cc1 (stereo not given) |
| 135 to 136 | CC(C(N)=O)c1ccc2c(c1)CCc1ccccc1S2 (stereo not given) |
| 98.5 to 102 | CCOC(=O)COc1cccc(C(NC(C)=O)(C(=O)OCC)C(=O)OCC)c1 |
| 45 to 46 | CCOC(=O)C(C)(C)Oc1ccc(CNc2ccccc2)cc1 |

| melting point [°C] | SMILES |
| --- | --- |
| 160 to 161 | COc1c2c(c(OC)c(OC)c1OC)CC(CCCOc1ccc(C(=O)O)cc1)C2 |
| 236 to 237 | CCc1cnc2c(NC(=O)c3c(Cl)cccc3Cl)cccc2c1CCC(=O)O |
| 158 | COc1cc(C)c2c(=O)c3c(OC)cccc3oc2c1OC |
| 77.5 to 79 | CCc1cn(C(CC)C(=O)N(C)C)nc1-c1ccccc1 (stereo not given) |
| 278 to 280 | CC(=O)NC12Oc3cc(C(C)C)ccc3C1(O)C(=O)c1c(N)cccc12 (stereo not given) |
| 169 to 172 | CCOc1ccc(F)c(CCN=C(N)Nc2ccc(Br)cn2)c1Cl |
| 272 to 273 | COc1ccc2ccc3nc(C(=O)O)cn3c2c1 |
| 218 to 221 | COc1cc(C(=O)N(C(C)C)C2CCCCC2)ccc1Cn1cccc2nc(C)nc1-2 |
| 62 to 64 | C=CCOC(=O)CC(C(C)=O)S(=O)(=O)c1ccccc1 (stereo not given) |
| 178 to 181 | Cn1c(C(=O)O)ccc1C(=O)c1ccccc1 |
| 86 | CCOC(=O)C(C)Oc1ccc(N(C)c2cc3ccc(Cl)cc3c(Cl)n2)cc1 (stereo not given) |
| 56 to 58 | CC(C)c1nc(CN(C)C(=O)N[C@@H](C)C(=O)N[C@@H](Cc2ccccc2)C[C@H](O)[C@H](Cc2ccccc2)NC(=O)OCc2cncs2)cs1 |
| 214 to 216 | CC(C)(C)C1(c2ccc(C(=O)O)cc2)OCCO1 |
| 208 to 209 | CCc1[nH]n(C2CCCC2)c2nc(-c3ccccc3OCC(=O)O)nc(=O)c1-2 |
| 87 to 88 | COc1ccc(C(=O)Cc2ccccc2)c(O)c1 |
| 145 to 147 | CCC(=N)c1c(O)cc(-c2ccccc2)n(C)c1=O |
| 222 to 223 | CCOC(=O)C1=C(N)Nc2ncnc(OC(C)C)c2C1c1ccccc1OC (stereo not given) |
| > 260 | NS(=O)(=O)c1ccc(NC(=O)c2ccccc2SSCC(O)CO)cc1 (stereo not given) |
